Key:
human recombinant HDAC1 = biological target: T1, human recombinant HDAC1 (Homo sapiens, UniProt Q13547); test: In vitro HDAC enzyme activity inhibition assay, HDAC1 (HDAC Fluorimetric Drug Discovery Kit); format: biochemical; details: human recombinant HDAC1, Fluor de Lys-SIRT1 substrate 10 μM, 30° C. for 60 minutes
T1 construct: purchased Enzo Life Sciences, Inc. BML-SE456
Procedure, shortened: (§1)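 Both HDAC1 and HDAC6 (human recombinant, 0.3 μg) tested identically: 10 μM fluorogenic Fluor de Lys-SIRT1 substrate, reaction 60 min at 30° C, developer added for 30 min. IC50 calculated from Ex 360/Em 460 signal over 5-fold serial dilutions.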

human recombinant HDAC6 = biological target: T2, human recombinant HDAC6 (Homo sapiens, UniProt Q9UBN7); test: In vitro HDAC enzyme activity inhibition assay, HDAC6 (HDAC Fluorimetric Drug Discovery Kit); format: biochemical; details: for HDAC6 Selectivity (fold): HDAC6 versus HDAC1; for IC50: human recombinant HDAC6, same protocol as the HDAC1 test
T2 construct: purchased Calbiochem Inc. 382180
T2 sequence (Q9UBN7 1-1215): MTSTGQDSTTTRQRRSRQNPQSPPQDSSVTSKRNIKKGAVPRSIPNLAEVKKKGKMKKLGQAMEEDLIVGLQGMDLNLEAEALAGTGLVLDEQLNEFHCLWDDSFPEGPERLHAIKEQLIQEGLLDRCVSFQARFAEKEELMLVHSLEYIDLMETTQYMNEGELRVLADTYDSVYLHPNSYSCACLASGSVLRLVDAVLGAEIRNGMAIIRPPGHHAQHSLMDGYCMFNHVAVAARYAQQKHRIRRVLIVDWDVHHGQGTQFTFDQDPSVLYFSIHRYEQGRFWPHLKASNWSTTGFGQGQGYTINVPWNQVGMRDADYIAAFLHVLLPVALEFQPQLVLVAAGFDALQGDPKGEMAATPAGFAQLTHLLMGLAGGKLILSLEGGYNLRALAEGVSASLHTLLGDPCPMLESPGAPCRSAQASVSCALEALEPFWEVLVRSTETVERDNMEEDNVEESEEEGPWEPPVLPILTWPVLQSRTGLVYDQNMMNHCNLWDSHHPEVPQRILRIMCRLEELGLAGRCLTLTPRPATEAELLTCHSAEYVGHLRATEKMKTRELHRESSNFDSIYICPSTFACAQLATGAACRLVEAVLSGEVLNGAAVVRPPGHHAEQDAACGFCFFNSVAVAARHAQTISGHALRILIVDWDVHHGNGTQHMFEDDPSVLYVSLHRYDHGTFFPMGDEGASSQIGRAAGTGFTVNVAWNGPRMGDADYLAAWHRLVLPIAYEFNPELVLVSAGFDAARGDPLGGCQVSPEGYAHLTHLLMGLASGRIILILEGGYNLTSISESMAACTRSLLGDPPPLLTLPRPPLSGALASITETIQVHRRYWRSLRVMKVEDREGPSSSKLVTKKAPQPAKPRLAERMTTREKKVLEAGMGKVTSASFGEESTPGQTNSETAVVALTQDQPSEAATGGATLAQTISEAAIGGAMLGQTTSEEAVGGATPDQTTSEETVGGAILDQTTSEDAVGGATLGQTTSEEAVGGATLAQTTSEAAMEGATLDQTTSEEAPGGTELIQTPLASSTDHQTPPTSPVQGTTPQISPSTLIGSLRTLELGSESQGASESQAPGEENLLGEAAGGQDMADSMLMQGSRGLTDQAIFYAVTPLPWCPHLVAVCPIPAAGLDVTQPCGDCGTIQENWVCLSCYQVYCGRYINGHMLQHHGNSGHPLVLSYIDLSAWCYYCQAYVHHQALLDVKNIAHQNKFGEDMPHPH
Procedure, shortened: as §1

T1 sequence (Q13547 whole entry): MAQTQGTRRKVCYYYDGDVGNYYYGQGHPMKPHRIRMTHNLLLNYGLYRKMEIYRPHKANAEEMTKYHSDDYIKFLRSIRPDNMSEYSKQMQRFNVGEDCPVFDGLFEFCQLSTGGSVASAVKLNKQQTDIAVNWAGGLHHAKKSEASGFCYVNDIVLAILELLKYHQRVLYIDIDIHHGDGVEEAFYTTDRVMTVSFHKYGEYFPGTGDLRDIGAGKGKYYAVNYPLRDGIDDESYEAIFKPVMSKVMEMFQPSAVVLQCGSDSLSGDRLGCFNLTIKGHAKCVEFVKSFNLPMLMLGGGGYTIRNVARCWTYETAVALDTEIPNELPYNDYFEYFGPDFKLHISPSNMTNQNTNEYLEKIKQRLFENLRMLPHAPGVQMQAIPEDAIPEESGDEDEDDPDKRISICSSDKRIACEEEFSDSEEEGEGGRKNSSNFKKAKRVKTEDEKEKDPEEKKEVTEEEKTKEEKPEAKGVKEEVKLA

SMILES | IC50 (human recombinant HDAC1) [µM] | HDAC6 Selectivity (fold) (human recombinant HDAC6) | IC50 (human recombinant HDAC6) [nM]
O=C(C1CCN(C2CCCCC2)CC1)N(Cc1cn2ccc(-c3nnc(C(F)F)o3)cc2n1)c1cccc(F)c1 [Compound 4143, 1-cyclohexyl-N-((7-(5-(difluoromethyl)-1,3,4-oxadiazol-2-yl)imidazo[1,2-a]pyridin-2-yl)methyl)-N-(3-fluorophenyl)piperidine-4-carboxamide] | > 50 | 335 | 149
O=C(C1CCN(C2CCOCC2)CC1)N(Cc1cn2ccc(-c3nnc(C(F)F)o3)cc2n1)c1cccc(F)c1 [Compound 4144, N-((7-(5-(difluoromethyl)-1,3,4-oxadiazol-2-yl)imidazo[1,2-a]pyridin-2-yl)methyl)-N-(3-fluorophenyl)-1-(tetrahydro-2H-pyran-4-yl)piperidine-4-carboxamide] | > 50 | 206 | 243
O=C(C1CCN(C2CCC(F)(F)CC2)CC1)N(Cc1cn2ccc(-c3nnc(C(F)F)o3)cc2n1)c1cccc(F)c1 [Compound 4145, 1-(4,4-difluorocyclohexyl)-N-((7-(5-(difluoromethyl)-1,3,4-oxadiazol-2-yl)imidazo[1,2-a]pyridin-2-yl)methyl)-N-(3-fluorophenyl)piperidine-4-carboxamide] | > 50 | 217 | 230
CC(=O)N1CCC(C(=O)N(Cc2cn3ccc(-c4nnc(C(F)F)o4)cc3n2)c2cccc(F)c2)CC1 [Compound 4146, 1-acetyl-N-((7-(5-(difluoromethyl)-1,3,4-oxadiazol-2-yl)imidazo[1,2-a]pyridin-2-yl)methyl)-N-(3-fluorophenyl)piperidine-4-carboxamide] | > 50 | 206 | 243
CCC(=O)N1CCC(C(=O)N(Cc2cn3ccc(-c4nnc(C(F)F)o4)cc3n2)c2cccc(F)c2)CC1 [Compound 4147, N-((7-(5-(difluoromethyl)-1,3,4-oxadiazol-2-yl)imidazo[1,2-a]pyridin-2-yl)methyl)-N-(3-fluorophenyl)-1-propionylpiperidine-4-carboxamide] | > 50 | 126 | 396
O=C(CO)N1CCC(C(=O)N(Cc2cn3ccc(-c4nnc(C(F)F)o4)cc3n2)c2cccc(F)c2)CC1 [Compound 4149, N-((7-(5-(difluoromethyl)-1,3,4-oxadiazol-2-yl)imidazo[1,2-a]pyridin-2-yl)methyl)-N-(3-fluorophenyl)-1-(2-hydroxyacetyl)piperidine-4-carboxamide] | > 50 | 335 | 149
O=C(C1CCC1)N1CCC(C(=O)N(Cc2cn3ccc(-c4nnc(C(F)F)o4)cc3n2)c2cccc(F)c2)CC1 [Compound 4150, 1-(cyclobutanecarbonyl)-N-((7-(5-(difluoromethyl)-1,3,4-oxadiazol-2-yl)imidazo[1,2-a]pyridine-2-yl)methyl)-N-(3-fluorophenyl)piperidine-4-carboxamide] | > 50 | 234 | 214
O=C(C1COC1)N1CCC(C(=O)N(Cc2cn3ccc(-c4nnc(C(F)F)o4)cc3n2)c2cccc(F)c2)CC1 [Compound 4151, N-((7-(5-(difluoromethyl)-1,3,4-oxadiazol-2-yl)imidazo[1,2-a]pyridin-2-yl)methyl)-N-(3-fluorophenyl)-1-(oxetane-3-carbonyl)piperidine-4-carboxamide] | > 50 | 245 | 204
O=C(C1CCN(C(=O)C(F)(F)F)CC1)N(Cc1cn2ccc(-c3nnc(C(F)F)o3)cc2n1)c1cccc(F)c1 [Compound 4152, N-((7-(5-(difluoromethyl)-1,3,4-oxadiazol-2-yl)imidazo[1,2-a]pyridin-2-yl)methyl)-N-(3-fluorophenyl)-1-(2,2,2-trifluoroacetyl)piperidine-4-carboxamide] | > 50 | 245 | 204
CS(=O)(=O)N1CCC(C(=O)N(Cc2cn3ccc(-c4nnc(C(F)F)o4)cc3n2)c2cccc(F)c2)CC1 [Compound 4153, N-((7-(5-(difluoromethyl)-1,3,4-oxadiazol-2-yl)imidazo[1,2-a]pyridin-2-yl)methyl)-N-(3-fluorophenyl)-1-(methylsulfonyl)piperidine-4-carboxamide] | > 50 | 363 | 138
COC(=O)N1CCC(C(=O)N(Cc2cn3ccc(-c4nnc(C(F)F)o4)cc3n2)c2cccc(F)c2)CC1 [Compound 4154, methyl 4-(((7-(5-(difluoromethyl)-1,3,4-oxadiazol-2-yl)imidazo[1,2-a]pyridin-2-yl)methyl)(3-fluorophenyl)carbamoyl)piperidine-1-carboxylate] | > 50 | 218 | 229
CN(C)C(=O)N1CCC(C(=O)N(Cc2cn3ccc(-c4nnc(C(F)F)o4)cc3n2)c2cccc(F)c2)CC1 [Compound 4155, N4-((7-(5-(difluoromethyl)-1,3,4-oxadiazol-2-yl)imidazo[1,2-a]pyridin-2-yl)methyl)-N4-(3-fluorophenyl)-N1,N1-dimethylpiperidine-1,4-dicarboxamide] | > 50 | 142 | 352
O=C(C1CCN(c2ccccn2)CC1)N(Cc1cn2ccc(-c3nnc(C(F)F)o3)cc2n1)c1cccc(F)c1 [Compound 4156, N-((7-(5-(difluoromethyl)-1,3,4-oxadiazol-2-yl)imidazo[1,2-a]pyridin-2-yl)methyl)-N-(3-fluorophenyl)-1-(pyridin-2-yl)piperidine-4-carboxamide] | > 50 | 359 | 139
O=C(C1CCN(c2ncccn2)CC1)N(Cc1cn2ccc(-c3nnc(C(F)F)o3)cc2n1)c1cccc(F)c1 [Compound 4157, N-((7-(5-(difluoromethyl)-1,3,4-oxadiazol-2-yl)imidazo[1,2-a]pyridin-2-yl)methyl)-N-(3-fluorophenyl)-1-(pyrimidin-2-yl)piperidine-4-carboxamide] | > 50 | 306 | 163
CN1CC(C(=O)N(Cc2cn3ccc(-c4nnc(C(F)F)o4)cc3n2)c2ccccc2)C1 [Compound 4158, N-((7-(5-(difluoromethyl)-1,3,4-oxadiazol-2-yl)imidazo[1,2-a]pyridin-2-yl)methyl)-1-methyl-N-phenylazetidine-3-carboxamide] | > 50 | 112 | 447
CCN1CC(C(=O)N(Cc2cn3ccc(-c4nnc(C(F)F)o4)cc3n2)c2ccccc2)C1 [Compound 4159, N-((7-(5-(difluoromethyl)-1,3,4-oxadiazol-2-yl)imidazo[1,2-a]pyridin-2-yl)methyl)-1-ethyl-N-phenylazetidine-3-carboxamide] | > 50 | 118 | 425
CC(C)N1CC(C(=O)N(Cc2cn3ccc(-c4nnc(C(F)F)o4)cc3n2)c2ccccc2)C1 [Compound 4160, N-((7-(5-(difluoromethyl)-1,3,4-oxadiazol-2-yl)imidazo[1,2-a]pyridin-2-yl)methyl)-1-isopropyl-N-phenylazetidine-3-carboxamide] | > 50 | 247 | 202
CC(CO)N1CC(C(=O)N(Cc2cn3ccc(-c4nnc(C(F)F)o4)cc3n2)c2ccccc2)C1 (stereo not drawn) [Compound 4161, N-((7-(5-(difluoromethyl)-1,3,4-oxadiazol-2-yl)imidazo[1,2-a]pyridin-2-yl)methyl)-1-(1-hydroxypropan-2-yl)-N-phenylazetidine-3-carboxamide] | > 50 | 224 | 223
